Our source for the IC50, selectivity ratio and CC50 values is ChEMBL document CHEMBL4265943, “Design and synthesis of potent dual inhibitors of JAK2 and HDAC based on fusing the pharmacophores of XL019 and vorinostat” (Eur J Med Chem, 2018).

Data set [1] relates to HCT-116. Nature of the data set: Antiproliferative activity against human HCT116 cells after 72 hrs by MTT assay. It is filed as functional, cell-based. The following applies: HCT-116, 72 h.
Data set [2] in a line: Selectivity index, ratio of CC50 for mouse TAMH cells to IC50 for human MCF7 cells. It is filed as toxicity. The following applies: TAMH cells (CC50) and MCF7 cells (IC50).
The nature of data set [3]: Antiproliferative activity against mouse TAMH cells after 72 hrs by MTT assay. It is filed as cell-based. On the technique in general: Tetrazolium assays rely on reduction of a dye to a coloured formazan, in cell work by metabolically active cells.
Data set [4] deals with Histone deacetylase 1 (Homo sapiens, UniProt Q13547). Nature of the data set: Inhibition of HDAC1 (unknown origin) using Arg-His-Lys-Lys(Ac) as substrate preincubated with enzyme followed by substrate addition for 2 hrs and measured for 1.5 hrs at 15 mins time interval by fluorescence assay.
Sequence of Histone deacetylase 1 (Q13547 whole entry): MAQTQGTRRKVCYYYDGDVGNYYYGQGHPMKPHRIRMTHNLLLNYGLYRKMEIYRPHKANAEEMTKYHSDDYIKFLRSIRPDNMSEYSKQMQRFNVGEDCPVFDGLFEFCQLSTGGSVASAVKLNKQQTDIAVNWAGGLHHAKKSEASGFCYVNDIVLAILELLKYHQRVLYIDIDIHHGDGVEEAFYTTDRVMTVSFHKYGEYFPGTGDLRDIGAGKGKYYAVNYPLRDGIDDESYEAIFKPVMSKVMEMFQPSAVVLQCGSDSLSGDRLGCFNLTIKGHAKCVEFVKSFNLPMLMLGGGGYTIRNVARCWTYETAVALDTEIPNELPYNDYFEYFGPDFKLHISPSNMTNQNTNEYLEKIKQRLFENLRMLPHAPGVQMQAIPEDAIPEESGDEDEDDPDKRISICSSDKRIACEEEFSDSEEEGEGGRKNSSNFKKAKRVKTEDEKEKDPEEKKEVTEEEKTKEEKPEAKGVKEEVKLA
The target in data set [5] is Tyrosine-protein kinase JAK2 (Homo sapiens, UniProt O60674). Nature of the data set: Inhibition of human JAK2 using poly(Glu:Tyr)(4:1) as substrate preincubated for 20 mins followed by [gamma33P]ATP addition measured after 120 mins by ion exchange filter paper method.
Sequence of Tyrosine-protein kinase JAK2 (O60674 whole entry): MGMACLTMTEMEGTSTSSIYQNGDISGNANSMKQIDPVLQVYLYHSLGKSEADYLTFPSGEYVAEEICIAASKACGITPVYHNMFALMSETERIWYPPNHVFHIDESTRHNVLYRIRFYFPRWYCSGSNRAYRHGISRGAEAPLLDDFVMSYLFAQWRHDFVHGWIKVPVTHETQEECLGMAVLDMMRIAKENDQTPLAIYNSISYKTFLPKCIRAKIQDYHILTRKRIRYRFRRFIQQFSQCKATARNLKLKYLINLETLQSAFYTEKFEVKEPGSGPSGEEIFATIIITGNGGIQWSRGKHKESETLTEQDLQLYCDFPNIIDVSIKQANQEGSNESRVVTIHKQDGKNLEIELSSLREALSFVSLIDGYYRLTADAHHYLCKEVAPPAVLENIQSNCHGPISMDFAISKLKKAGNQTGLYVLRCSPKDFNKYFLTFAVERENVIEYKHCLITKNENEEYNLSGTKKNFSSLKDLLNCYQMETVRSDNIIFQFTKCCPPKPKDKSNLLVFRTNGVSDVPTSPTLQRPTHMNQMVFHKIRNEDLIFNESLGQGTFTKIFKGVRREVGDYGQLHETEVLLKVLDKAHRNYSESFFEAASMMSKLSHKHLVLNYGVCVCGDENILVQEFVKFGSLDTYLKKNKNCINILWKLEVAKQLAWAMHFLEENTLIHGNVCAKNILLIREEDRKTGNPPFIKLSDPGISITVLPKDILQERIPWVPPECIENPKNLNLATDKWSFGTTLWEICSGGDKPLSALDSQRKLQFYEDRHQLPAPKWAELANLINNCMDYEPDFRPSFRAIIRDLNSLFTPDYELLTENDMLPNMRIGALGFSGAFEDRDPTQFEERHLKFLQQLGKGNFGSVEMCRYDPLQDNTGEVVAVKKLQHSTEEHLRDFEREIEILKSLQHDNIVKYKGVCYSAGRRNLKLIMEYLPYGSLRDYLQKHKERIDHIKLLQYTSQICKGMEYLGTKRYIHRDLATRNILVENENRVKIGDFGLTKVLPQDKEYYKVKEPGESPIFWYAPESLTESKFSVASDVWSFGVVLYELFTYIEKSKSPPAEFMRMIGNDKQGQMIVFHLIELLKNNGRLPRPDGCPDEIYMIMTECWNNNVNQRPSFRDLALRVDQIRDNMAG
The target in data set [6] is T1, Protein deacetylase HDAC6 (Homo sapiens, UniProt Q9UBN7).
T1 sequence (Q9UBN7 whole entry): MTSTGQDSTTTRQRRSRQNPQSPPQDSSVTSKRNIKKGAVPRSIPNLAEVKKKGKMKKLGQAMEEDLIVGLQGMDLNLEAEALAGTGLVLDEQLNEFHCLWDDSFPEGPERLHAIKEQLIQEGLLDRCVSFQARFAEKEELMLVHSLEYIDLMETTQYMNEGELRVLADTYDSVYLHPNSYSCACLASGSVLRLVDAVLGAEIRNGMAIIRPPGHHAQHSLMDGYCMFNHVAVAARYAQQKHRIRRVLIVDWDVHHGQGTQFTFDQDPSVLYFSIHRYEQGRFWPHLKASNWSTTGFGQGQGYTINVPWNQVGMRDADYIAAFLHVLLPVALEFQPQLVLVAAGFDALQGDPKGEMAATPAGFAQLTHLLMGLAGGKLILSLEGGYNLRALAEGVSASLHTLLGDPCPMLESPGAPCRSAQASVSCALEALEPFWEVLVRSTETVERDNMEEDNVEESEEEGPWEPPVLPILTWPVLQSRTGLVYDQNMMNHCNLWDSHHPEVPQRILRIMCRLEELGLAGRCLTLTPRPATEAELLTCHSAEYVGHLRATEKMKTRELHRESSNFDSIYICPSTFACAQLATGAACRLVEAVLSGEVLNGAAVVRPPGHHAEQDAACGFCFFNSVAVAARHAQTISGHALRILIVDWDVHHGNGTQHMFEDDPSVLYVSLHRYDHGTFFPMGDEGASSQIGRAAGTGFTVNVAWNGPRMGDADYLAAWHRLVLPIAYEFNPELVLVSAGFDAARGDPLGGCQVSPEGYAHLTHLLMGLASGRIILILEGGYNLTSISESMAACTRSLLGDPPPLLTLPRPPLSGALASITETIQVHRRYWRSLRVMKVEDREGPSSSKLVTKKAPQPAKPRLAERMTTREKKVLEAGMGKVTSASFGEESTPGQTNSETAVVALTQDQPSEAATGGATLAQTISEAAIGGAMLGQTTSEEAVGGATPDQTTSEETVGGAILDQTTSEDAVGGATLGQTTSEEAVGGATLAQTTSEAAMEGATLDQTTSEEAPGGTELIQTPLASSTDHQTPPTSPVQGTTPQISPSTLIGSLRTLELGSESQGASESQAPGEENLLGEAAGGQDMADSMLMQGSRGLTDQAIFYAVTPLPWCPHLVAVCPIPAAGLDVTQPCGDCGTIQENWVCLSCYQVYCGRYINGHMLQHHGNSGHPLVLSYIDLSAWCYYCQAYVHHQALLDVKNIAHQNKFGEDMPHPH
Nature of the data set: Inhibition of HDAC6 (unknown origin) using Arg-His-Lys-Lys(Ac) as substrate preincubated with enzyme followed by substrate addition for 2 hrs and measured for 1.5 hrs at 15 mins time interval by fluorescence assay.

In data set [7] the test system is PC-3. Nature of the data set: Antiproliferative activity against human PC3 cells after 72 hrs by MTT assay. It is filed as functional, cell-based. The following applies: PC-3, 72 h.
Data set [8] can be described thus: Selectivity index, ratio of CC50 for human AC10 cells to IC50 for human MCF7 cells. It is filed as toxicity. The following applies: AC10 cells (CC50) and MCF7 cells (IC50).
Data set [9] is described as follows: Antiproliferative activity against human AC10 cells after 72 hrs by MTT assay. Format: cell-based.
The nature of data set [10]: Selectivity index, ratio of CC50 for human AC10 cells to IC50 for human MDA-MB-231 cells. Format: toxicity. The following applies: AC10 cells (CC50) and MDA-MB-231 cells (IC50).
Data set [11] is described as follows: Selectivity index, ratio of CC50 for mouse TAMH cells to IC50 for human PC3 cells. It is filed as toxicity. The following applies: TAMH cells (CC50) and PC3 cells (IC50).
Data set [12] in a line: Selectivity index, ratio of CC50 for mouse TAMH cells to IC50 for human MDA-MB-231 cells. It is filed as toxicity. The following applies: TAMH cells (CC50) and MDA-MB-231 cells (IC50).
A short description of data set [13]: Selectivity index, ratio of CC50 for mouse TAMH cells to IC50 for human HCT116 cells. Format: toxicity. The following applies: TAMH cells (CC50) and HCT116 cells (IC50).
Data set [14] is described as follows: Selectivity index, ratio of CC50 for human AC10 cells to IC50 for human PC3 cells. Format: toxicity. The following applies: AC10 cells (CC50) and PC3 cells (IC50).
Data set [15] can be described thus: Selectivity index, ratio of CC50 for human AC10 cells to IC50 for human HCT116 cells. It is filed as toxicity. The following applies: AC10 cells (CC50) and HCT116 cells (IC50).
In data set [16] the test system is MCF7. Nature of the data set: Antiproliferative activity against human MCF7 cells after 72 hrs by MTT assay. The following applies: MCF7, 72 h. Format: functional, cell-based.
Data set [17] relates to MDA-MB-231. The data set is described as follows: Antiproliferative activity against human MDA-MB-231 cells after 72 hrs by MTT assay. It is filed as functional, cell-based. The following applies: MDA-MB-231, 72 h.

What is called IC50 is the point on the concentration scale where inhibition reaches its midpoint. Higher therefore signals weaker potency in that assay. As a reminder, the CC50 is the concentration that lowers cell viability or growth by half. Lower therefore signals greater toxicity to the cells.

Take `CC(=O)Nc1ccc(-c2nc(Nc3ccc(OCCCCCC(=O)NO)cc3)ncc2C)cc1`: the IC50 was found to be 920 nM in [1]; 260 nM in data set [4]; 25.6 nM in [5]; 3.5 nM in data set [6]; 2410 nM in [7]; 2370 nM in data set [16]. The compound also came in with an IC50 in data set [17] of 1060 nM. The selectivity ratio is 2.35 in data set [2]; 7.14 in [8]; 16 in [10]; 2.32 in data set [11]; 5.26 in data set [12]; 6.07 in data set [13]. Also, the selectivity ratio in data set [14] stood at 7.02; in data set [15] it was 18.4. For the same compound, the CC50 at 72 h in [3] worked out at 5580 nM; in [9], 16900 nM.
For the compound `O=C(CCCCCCC(=O)Nc1ccccc1)NO` [VORINOSTAT], the midpoint of inhibition in [16], the IC50, lay at 810 nM.
In the case of `CN1CCN(CC(=O)Nc2ccc(-c3ccnc(Nc4cccc(OCCCCCCC(=O)NO)c4)n3)cc2)CC1`, the IC50 in [1] came to 770 nM; in data set [4], 348 nM; in [5], 109 nM; in data set [6] it was 6.8 nM; in data set [7], 1150 nM; in [16] it was 1320 nM. In data set [17], the half-inhibitory concentration (IC50) was 650 nM. The selectivity ratio is 3.87 in data set [2]; 4.75 in data set [8]; 9.65 in [10]; 4.44 in [11]; 7.86 in data set [12]; 6.64 in data set [13]. Moreover, the selectivity ratio in data set [14] stood at 5.45; in data set [15], 8.14. In addition, the CC50 at 72 h in [3] was determined as 5110 nM; in data set [9], 6270 nM.
For `CC(=O)Nc1ccc(-c2ccnc(Nc3cccc(N4CCCCC4)c3)n2)cc1`, the IC50 in [5] turned out to be 13.8 nM. That is a double-digit nanomolar value.
With `CC(=O)Nc1ccc(-c2ccnc(Nc3ccc(N4CCN(C)CC4)cc3)n2)cc1`, in [5], the IC50 was found to be 7.9 nM.
With `CC(=O)Nc1ccc(-c2ccnc(Nc3ccc(NC(=O)CCCCC(=O)NO)cc3)n2)cc1`, the IC50 worked out at 65600 nM in data set [1]; 3350 nM in data set [4]; 58.3 nM in data set [5]; 117 nM in data set [6]; 47300 nM in [7]; 43400 nM in data set [16]. Besides, the IC50 in [17] came out at 32100 nM.
Take `O=C(CCCCCCC(=O)Nc1ccc(-c2ccnc(Nc3cccc(N4CCCCC4)c3)n2)cc1)NO`: the selectivity ratio in data set [2] was found to be 4.42; in [8] it was 5.04; in data set [10], 4.02; in data set [11], 6.25; in [12], 3.53; in data set [13] it was 2.81. Besides, the selectivity ratio in data set [14] was found to be 7.12; in data set [15], 3.2. Besides, the CC50 at 72 h worked out at 4690 nM in data set [3] and 5340 nM in data set [9]. Further, the IC50 in data set [4] is 179 nM; in [5] it was 6.6 nM; in data set [6] it was 9 nM.
For the compound `O=C(CCCCCCC(=O)Nc1ccc(-c2ccnc(Nc3ccc(N4CCCCC4)cc3)n2)cc1)NO`, the IC50 was 1070 nM in data set [1]; 934 nM in data set [4]; 23 nM in data set [6]; 5580 nM in data set [7]; 1890 nM in data set [16]; 2830 nM in data set [17]. Besides, the CC50 at 72 h in data set [3] is 12900 nM; in [9], 11700 nM.
With `Cc1cnc(Nc2ccc(N3CCN(C)CC3)cc2)nc1-c1ccc(NC(=O)CCCCCCC(=O)NO)cc1`, the IC50 in data set [1] was determined as 1050 nM; in [4], 139 nM; in [5], 4.3 nM; in [6] it was 2.1 nM; in data set [7] it was 1040 nM; in [16], 1300 nM. Besides, the IC50 in data set [17] turned out to be 970 nM. In addition, the selectivity ratio in data set [2] came out at 5.75; in data set [8] it was 2.86; in data set [10] it was 3.84; in data set [11], 7.19; in data set [12], 7.71; in data set [13], 7.12. The selectivity ratio amounted to 3.58 in [14] and 3.54 in [15]. Besides, the CC50 at 72 h in data set [3] was determined as 7480 nM; in data set [9] it was 3720 nM.
As for `O=C(CCCCCCC(=O)Nc1ccc(-c2ccnc(Nc3ccccc3)n2)cc1)NO`, the IC50 in data set [1] was 190 nM; in data set [4] it was 3.8 nM; in data set [5] it was 41.3 nM; in data set [6] it was 1.44 nM; in [7], 210 nM; in data set [16] it was 330 nM. The same compound yielded an IC50 in [17] of 270 nM. For the same compound, the selectivity ratio turned out to be 22.1 in [2]; 9.12 in data set [8]; 11.2 in data set [10]; 34.7 in data set [11]; 27 in data set [12]; 38.3 in data set [13]. Further, the figures for the selectivity ratio in data set [14] and in data set [15] were 14.3 and 15.8, respectively. Besides, the values for the CC50 at 72 h in [3] and in data set [9] were 7280 nM and 3010 nM, respectively.
On to `Cc1cnc(Nc2ccc(N3CCOCC3)cc2)nc1-c1ccc(NC(=O)CCCCCCC(=O)NO)cc1`, for which the IC50 in [1] is 2530 nM; in [4] it was 289 nM; in data set [6], 3.7 nM; in [7] it was 1740 nM; in [16], 2470 nM; in data set [17] it was 1230 nM. The CC50 at 72 h in data set [3] was determined as 7470 nM; in [9], 6060 nM.
In [5], `CC(=O)Nc1ccc(-c2ccnc(Nc3ccc(N4CCCCC4)cc3)n2)cc1` came in with an IC50 of 2.9 nM.
With `O=C(Nc1ccc(-c2ccnc(Nc3ccc(N4CCOCC4)cc3)n2)cc1)[C@@H]1CCCN1`, the IC50 in [1] is 7340 nM; in [7], 14900 nM; in [16] it was 27200 nM; in data set [17], 9670 nM.
For the compound `CC(=O)Nc1ccc(-c2ccnc(Nc3cccc(N4CCOCC4)c3)n2)cc1`, the IC50 in data set [5] is 19.6 nM.
`COC(=O)CCCCCCOc1ccc(Nc2nccc(-c3ccc(NC(C)=O)cc3)n2)cc1`: the IC50 was over 10000 nM in [4], 239 nM in [5] and 3150 nM in [6].
For `O=C(CCCCCCOc1ccc2cc1COC/C=C/COCc1cccc(c1)-c1ccnc(n1)N2)NO`, in [7], the IC50 stood at 1700 nM.
